Consider five compounds from PMC10788937, “Chemical Catalysis Guides Structural Identification for the Major In Vivo Metabolite of the BET Inhibitor JQ1” (ACS Medicinal Chemistry Letters, 2024).

The nature of one series: in vitro. The protocol:
(§1) The samples are collected at specific time-points (0, 5, 10, 20, 40, and 60 min. The reactions are terminated by adding equivalent volume of ice-cold MeOH and vortexed. The reaction mixtures are centrifuged at rcf 15,000 for 15 min. Five μL of the supernatant will be analyzed by UHPLC-Q Exactive Orbitrap MS (Thermo Fisher Scientific, San Jose, CA) equipped with 50 mm × 4.6 mm column (XDB C-18, Agilent Technologies, Santa Clara, CA). The column temperature is maintained at 40 °C. The flow rate of is at 0.3 mL/min with a 30% mobile phase (acetonitrile containing 0.1% formic acid). Q Exactive MS is operated in positive or negative mode with electrospray ionization. Ultrapure nitrogen is applied as the sheath (45 arbitrary unit), auxiliary (10 arbitrary unit), sweep (1.0 arbitrary unit) and the collision gas. The capillary gas temperature is set at 275 °C and the capillary voltage was set at 3.7 kV. MS data were acquired from 80 to 1200 Da in […]
(§2) The Surface Plasmon Resonance (SPR) experiment was conducted using a Pioneer FE SPR System (Sartorius) equipped with a SPR HisCap Sensor
(§3) Chip. The instrument was calibrated and validated prior to the experiment according to the manufacturer's instructions. The chip surface was activated with a mixture of N-hydroxysuccinimide (NHS), 50 mM, and N-ethyl-N'-(3-dimethylaminopropyl) carbodiimide (EDC), 200 mM, at a 20 µL/min flow rate for 5. minutes. Covalent attachment of his-BRDT to channel 1 was achieved by injecting 150 µL of protein at 10 mg/mL at […]. Channel 2 of the chip was used as a blank reference and unreacted functional groups of both channels were blocked using ethanolamine.
(§4) SPR running buffer consisted of 100 mM Tris-HCl, 200 mM NaCl, and 0.05% Tween-20. […]
(§5) closely mimics the buffer conditions and injected at 40µL/min using the OneStep injection system at 0.5, 5, and 50 µM concentrations. The real-

A short description of series [1]: Pharmacokinetic studies in mice (1:1 mixture, intraperitoneal). In kind it is in vivo, mice (C57BL/6NJ). Conditions: for AUC(0-t) / CL/F / half-life at 24 h: C57BL/6NJ, mouse, plasma, ip, 50 mg/kg 1:1 mixture, intraperitoneal. An excerpt:
The observed improvement in male mice was not determined to be significant, but the gender differences are not unprecedented in human drug metabolism, as the clearance of CYP3A substrates occurs more rapidly by females than males.[35] Gender differences in hepatic CYP expression have been identified in mice, rats, and humans,[36] including a female-specific CYP3A family member in mice,[37] and circadian variations in mice can accentuate the sex differences in CYP3A isoform expression.[38] […] It is noteworthy that the relationship between AUC and half-life can be affected with no correlation due to influence on both by various factors such as target-mediated drug disposition, drug formulation, route of administration, metabolism, absorption, and elimination pathways.[39],[40] AUC0–t represents the cumulative effect, while t1/2 represents only the rate at which the drug is eliminated from the body. […]
time binding response was recorded using the instrument software and sensorgrams were analyzed using the QDAT software. The baseline subtraction, referencing, and double-referencing techniques were applied to obtain specific binding responses. Kinetic parameters were calculated by fitting sensograms to OneStep binding models for determining the dissociation rate constant (kd) for the highest concentration and constraining the lower concentrations to the determined value. All data was locally fitted to a simple 1:1 interaction model.
Pharmacokinetic studies in mice
Mouse studies were performed under protocols approved by the Institutional Animal Care and Use Committee of Baylor College of Medicine and guidelines established by the NIH Guide for the Care and Use of Laboratory Animals. Animals were housed under standard conditions of a 12-hour light/dark cycle in a vivarium with controlled ambient temperature (70˚ ± 2˚ and 20-70% relative humidity). Pharmacokinetic studies were performed using 8-12-week-old mice (C57BL/6NJ, female, n =4 and male n = 4)). Mice were administered 50 mg/kg of compounds (1:1 of mixtures of (+)-JQ1 and (+)-JQ1-D) via intraperitoneal injection to mice. Twenty µl of blood was collected via the tail vein at 0, 15, 30 minutes, 1, 2, 4, 8, and 24 hours post treatment. To 10 ul of plasma was added 25 ul of MeOH with internal standard. The resulting mixtures were vortexed and span at rcf 15,000 for 15 min and 5 ul of the supernatant were injected into the UHPLC-Q Exactive Orbitrap MS for analysis. The concentrations of tested compounds were calculated based on their corresponding standard curves. Pharmacokinetic parameters including half-time (t1/2), area under the plasma concentration–time curve during the period of observation (AUC0–t), clearance normalized by bioavailability (CL/F) were calculated on WinNonlin software (Certara, Princeton, NJ) by noncompartmental analysis.

The subject of the next series is BRD4. The following applies: read-out: BRD4 IC50; ALPHAScreen, biotin-tagged (+)-JQ1 probe. On the technique in general: Alpha assays give light when donor and acceptor beads are brought close together.
For series [2] the following is noted: cited from earlier work.
In the next series the target is BRDT (Homo sapiens, UniProt Q58F21). The format is binding. Conditions: SPR, his-BRDT; for Kd: read-out: BRDT binding Kd. On the procedure:
as §1, §2, §3, §4, §5

Series [3] in a line: Isotopomeric ratios from the pharmacokinetic time course in mice. The format is in vivo. The following applies: first time point.
Excerpt: Quantifying the isomer ion counts in the same sample from a single LC/MS trace eliminates many sources of error and uncertainty and makes it possible to track the relative effects of deuteration with high precision and accuracy.

In the series “in vitro” (human, microsomes), `Cc1sc2c(c1C)C(c1ccc(Cl)cc1)=N[C@@H](CC(=O)OC(C)(C)C)c1nnc(C)n1-2` [(+)-JQ1, reference compound] returned a half-life at 0.2 μM of 7.9 min and a half-life at 1 h, 0.2 μM of […]. In the series “in vitro” (mouse, microsomes), the half-life at 1 h, 0.2 μM came to […]. Besides, in series [1] (female mice), the AUC(0-t) was […], the CL/F was […] and the half-life at 24 h is 116 min. In series [1] (male mice), the AUC(0-t) is […], the CL/F was […] and the half-life at 24 h is 202 min. Besides, the IC50 with BRD4 came out at […]. Moreover, in series [2], the in vivo half-life entry is on record as “about an hour”.

`[2H]C([2H])([2H])c1sc2c(c1C)C(c1ccc(Cl)cc1)=N[C@@H](CC(=O)OC(C)(C)C)c1nnc(C)n1-2` [(+)-JQ1-D]: the half-life at 1 h, 0.2 μM in the series “in vitro” (human, microsomes) is 22.5 min. The compound further yielded a half-life at 1 h, 0.2 μM in the series “in vitro” (mouse, microsomes) of 19.8 min. Also, in series [1] (female mice), the exposure AUC(0-t) was determined as […], the apparent clearance (CL/F) was 16.5 mL/min/kg, the half-life at 24 h was […] and the “improvement of total exposure (AUC0–t) compared to (+)-JQ1” value was 23%. Further, in series [1] (male mice), the AUC(0-t) was found to be 94200 ng·h/mL, the apparent clearance CL/F is […], the half-life at 24 h is […] and the “improvement of total exposure (AUC0–t) compared to (+)-JQ1” value came out at […]. Further, the IC50 with BRD4 stood at […].

`Cc1c(CF)sc2c1C(c1ccc(Cl)cc1)=N[C@@H](CC(=O)OC(C)(C)C)c1nnc(C)n1-2` [(+)-JQ1-F1] displayed a half-life at 1 h, 0.2 μM in the series “in vitro” (human, microsomes) of 52 min. Besides, on BRDT, the “BRDT binding Kd” value is reported as “lost potency” and the Kd worked out at 722 nM.

Regarding `Cc1c(C(F)F)sc2c1C(c1ccc(Cl)cc1)=N[C@@H](CC(=O)OC(C)(C)C)c1nnc(C)n1-2` [(+)-JQ1-F2], in “in vitro” (0.1 mg/mL microsomal protein), the “Human liver microsomal t1/2” value was “substantially improved half-life”. This compound also yielded a half-life at 1 h, 0.2 μM in “in vitro” (human, microsomes) of 125 min. On BRDT, the “BRDT binding Kd” value is on record as “lost potency” and the Kd came out at 3920 nM.

On to `Cc1c(CO)sc2c1C(c1ccc(Cl)cc1)=N[C@@H](CC(=O)OC(C)(C)C)c1nnc(C)n1-2` [M1], for which the M1/M1D ratio in series [3] (female mice) amounted to 2.095 ± 0.089; in series [3] (male mice), 1.799 ± 0.043.

By half-life is commonly meant the time needed for the level to fall by half in the phase considered. Usually AUC(0-t) stands for the area under the concentration-time curve up to a stated or last time point. The CL/F is clearance divided by bioavailability, as obtained after extravascular dosing. For orientation: IC50 means the concentration that inhibits the measured activity by half. By Kd is commonly meant the free concentration of one partner at which half of the binding sites on the other are occupied at equilibrium, for simple one-to-one binding.
